Reference: PMC8476755 (Frontiers in Chemistry, 2021)
Changes are numbered by the printed parent chain. Blank lines part the entries; values can stand above or below the compound they belong to.

Legend:
BGT1 [1] = molecular target: T1, BGT1 (Homo sapiens, UniProt P48065); assay: [3H]GABA uptake assay, single concentration screening; assay type: cell-based; conditions: read-out: Percentage inhibition of [3H]GABA uptake at BGT1, 100 µM test compound; n = 2
T1 construct: expressed in transfected cells
T1 sequence (P48065 1-614): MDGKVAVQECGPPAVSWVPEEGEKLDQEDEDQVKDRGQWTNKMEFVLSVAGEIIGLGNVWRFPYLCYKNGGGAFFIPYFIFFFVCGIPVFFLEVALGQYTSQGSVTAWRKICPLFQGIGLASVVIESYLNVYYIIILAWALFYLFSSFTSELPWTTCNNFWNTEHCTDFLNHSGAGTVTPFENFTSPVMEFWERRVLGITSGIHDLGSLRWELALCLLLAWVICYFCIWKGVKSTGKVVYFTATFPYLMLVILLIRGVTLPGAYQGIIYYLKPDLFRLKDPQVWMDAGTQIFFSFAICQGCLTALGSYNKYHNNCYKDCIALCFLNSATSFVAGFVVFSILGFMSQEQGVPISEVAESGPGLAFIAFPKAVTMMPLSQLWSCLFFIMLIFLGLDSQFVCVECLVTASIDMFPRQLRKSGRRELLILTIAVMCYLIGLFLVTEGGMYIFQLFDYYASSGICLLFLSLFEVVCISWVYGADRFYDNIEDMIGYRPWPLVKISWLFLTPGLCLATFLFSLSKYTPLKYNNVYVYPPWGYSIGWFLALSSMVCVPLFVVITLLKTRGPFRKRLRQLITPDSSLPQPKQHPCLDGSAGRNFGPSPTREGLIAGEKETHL
Method: (§1) Based on this finding, only 2 and bicyclo-GABA were further investigated pharmacologically.
(§2) (D–E) Gaddum-Schild analysis of bicyclo-GABA, yielding a Schild slope of 1.02 indicative of competitive inhibition with a calculated K B of 0.47 µM (n = 4). (F) Characterization of bicyclo-GABA and 2 at α1β2γ2 GABAA receptors by use of the FMP assay. […] Data are presented as means ± S.E.M.
Briefly, cells were seeded in white 96-well plates (White Opaque Tissue Culture (TC) plated 96-well Microplate) pre-coated with PDL. Medium was removed on the following day and cells washed with 100 µL/well assay buffer (HBSS supplemented with 20 mM HEPES, 1 mM CaCl2 and 1 mM MgCl2, pH 7.4). […] The cells were washed 3 times with 100 µL/well ice-cold assay buffer, 150 µL/well MicroScint™20 was subsequently added before the plate was shaken for at least 1 h. The plate was counted in a Packard TopCounter microplate scintillation counter (PerkinElmer) for 3 min per well. Typical counts per minute for the different GATs were in the range of: wt hBGT1 (100–4,000), BGT1 Q299 (100–1,000), hBGT E52Y (150–500), BGT1 E52A (150–8,000), BGT1 E52A + Q299L (150–500), wt GAT3 (200–8,000), GAT3 L314Q (100–1,500), wt GAT1 (100–10,000) and wt GAT2 (150–7,500). […] Data presented is the pooled data of at least three independent experiments with three technical replicates if not stated otherwise in figure legends. […]

[2] = tested on: four human GABA transporters (GATs); assay: [3H]GABA uptake assay, single concentration screening at the four human GATs; assay type: cell-based; conditions: 100 µM test compound, n = 2
Method: as §1, §2
(§3) Briefly, cells were seeded in white 96-well plates (White Opaque Tissue Culture (TC) plated 96-well Microplate) pre-coated with PDL. Medium was removed on the following day and cells washed with 100 µL/well assay buffer (HBSS supplemented with 20 mM HEPES, 1 mM CaCl2 and 1 mM MgCl2, pH 7.4). […] The cells were washed 3 times with 100 µL/well ice-cold assay buffer, 150 µL/well MicroScint™20 was subsequently added before the plate was shaken for at least 1 h. The plate was counted in a Packard TopCounter microplate scintillation counter (PerkinElmer) for 3 min per well. Typical counts per minute for the different GATs were in the range of: wt hBGT1 (100–4,000), BGT1 Q299 (100–1,000), hBGT E52Y (150–500), BGT1 E52A (150–8,000), BGT1 E52A + Q299L (150–500), wt GAT3 (200–8,000), GAT3 L314Q (100–1,500), wt GAT1 (100–10,000) and wt GAT2 (150–7,500). […] Data presented is the pooled data of at least three independent experiments with three technical replicates if not stated otherwise in figure legends. Concentration–response curves were fitted by non-linear regression to the sigmoidal concentration-response model with GraphPad Prism (version 9.0.0, GraphPad Software, San Diego, CA, United States) as described ([Lie et al., 2020]).

BGT1 E52A = molecular target: T2, BGT1 E52A (Homo sapiens, UniProt P48065, E52A); assay: [3H]GABA uptake assay, transient expression in tsA201 cells; assay type: cell-based; conditions: BGT1 E52A vs BGT1 wt
T2 construct: expressed in transfected cells; host or cells: tsA201 (transformed HEK293), transient
T2 sequence (P48065 1-614 E52A): T1 sequence (P48065 1-614) with E52A
Method: The residue Q299 in human BGT1 corresponds to leucine in all other GATs (human, rat, mouse), while E52 corresponds to tyrosine in GAT1 (human, rat, mouse) but is conserved among GAT2, GAT3 and BGT1 (human, rat, mouse) (Figure 6A) ([Kickinger et al., 2019]).
(§4) The tsA201 cell line (a transformed HEK293 cell line), the Flp-In CHO cell lines stably expressing human (h) GATs and the HEK293 cell line stably expressing human α1β2γ2 GABAA receptors have been described previously and were cultured accordingly ([Al-Khawaja et al., 2014]; [Falk-Petersen et al., 2020]). The tsA201 cell line used for transient expression of hGATs was transfected with DNA constructs (8 μg per 10 cm plate) using 40 μL PolyFect transfection reagent according to the manufacturer’s protocol (Qiagen).
as §3, with “well.” for “well. Typical counts per minute for the different GATs were in the range of: wt hBGT1 (100–4,000), BGT1 Q299 (100–1,000), hBGT E52Y (150–500), BGT1 E52A (150–8,000), BGT1 E52A + Q299L (150–500), wt GAT3 (200–8,000), GAT3 L314Q (100–1,500), wt GAT1 (100–10,000) and wt GAT2 (150–7,500).”

GAT3 L314Q = molecular target: T3, GAT3 L314Q (Homo sapiens, UniProt P48066, L314Q); assay: as above; assay type: cell-based; conditions: GAT3 L314Q, tsA201 cells; read-out: pIC50 ± S.E.M. (converted)
T3 construct: expressed in transfected cells; host or cells: tsA201 (transformed HEK293), transient
T3 sequence (P48066 1-632 L314Q): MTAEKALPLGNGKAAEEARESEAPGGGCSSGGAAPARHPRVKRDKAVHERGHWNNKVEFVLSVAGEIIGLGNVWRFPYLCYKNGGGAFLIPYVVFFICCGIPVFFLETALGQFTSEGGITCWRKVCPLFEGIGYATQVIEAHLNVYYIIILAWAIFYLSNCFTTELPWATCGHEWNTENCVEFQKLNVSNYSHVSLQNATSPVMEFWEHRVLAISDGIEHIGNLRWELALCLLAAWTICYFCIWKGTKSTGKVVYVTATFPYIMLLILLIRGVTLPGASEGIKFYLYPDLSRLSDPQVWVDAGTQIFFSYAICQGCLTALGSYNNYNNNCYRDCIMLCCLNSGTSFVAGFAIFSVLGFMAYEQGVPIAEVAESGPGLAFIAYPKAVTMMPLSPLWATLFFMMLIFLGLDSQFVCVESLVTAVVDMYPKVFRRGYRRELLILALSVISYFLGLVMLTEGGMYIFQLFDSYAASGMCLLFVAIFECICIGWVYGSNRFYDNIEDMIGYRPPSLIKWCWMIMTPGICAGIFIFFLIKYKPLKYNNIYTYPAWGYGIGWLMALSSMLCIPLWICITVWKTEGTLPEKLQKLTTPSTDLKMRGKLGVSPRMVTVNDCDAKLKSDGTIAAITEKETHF
Description: According to the docking and MD results, the sidechains of Q299 and E52 were identified to form crucial interactions with the protonated nitrogen of both compounds. The residue Q299 in human BGT1 corresponds to leucine in all other GATs (human, rat, mouse), while E52 corresponds to tyrosine in GAT1 (human, rat, mouse) but is conserved among GAT2, GAT3 and BGT1 (human, rat, mouse) (Figure 6A) ([Kickinger et al., 2019]). Thus, we engineered the corresponding mutants Q299L and E52Y in human BGT1 and predicted that the introduction of these mutations would lead to decreased activity of both bicyclo-GABA and 2 due to the loss of essential hydrogen bond interactions. Furthermore, we wanted to test the double mutant E52Y + Q299L. However, in a previous study this mutant was proven non-functional ([Kickinger et al., 2020]). Instead, we generated the double mutant E52A + Q299L as well as the single mutant E52A. For these mutants we predicted decreased activity. Lastly, the reciprocal mutation to BGT1 Q299L was created in GAT3 (L314Q), ideally expecting a gain-of-function.
FIGURE 6 (A) Pocket alignment of the orthosteric site of the four GAT subtypes colored according to the default ClustalX color scheme ([Larkin et al., 2007]). The pocket was defined as all corresponding GAT residues (15 in total) that are within a distance of 4.5 Å of the co-crystallized ligand leucine in the homologous LeuT crystal structure (PDB ID 2A65) ([Yamashita et al., 2005]) according to the alignment by Kickinger et al. ([Kickinger et al., 2019]). The mutated residues in BGT1 and the corresponding residues in GAT1-3 are indicated by a red box. The numbering of all residues within the orthosteric pocket can be found in the Supplementary Table S1.
as §4, with “(Qiagen). All DNA constructs used have been described previously: wt hBGT1, wt GAT3 ([Kvist et al., 2009]), BGT1 Q299, GAT3 L314Q ([Jørgensen et al., 2017]), hBGT E52Y, BGT1 E52A and BGT1 E52A + Q299L ([Kickinger et al., 2020]).” for “(Qiagen).”
as §3

BGT1 [3] = tested on: BGT1; set-up: method as in Kobayashi et al., 2014; conditions: ref Kobayashi et al., 2014, cited from earlier work

inhibition at 100 µM (BGT1 [1]): 68%
SMILES: CC1(CC(=O)O)CC1N (centres unmarked) [4a]

SMILES: CCC1(CC(=O)O)CC1N (centres unmarked) [4b]
Percentage inhibition of [3H]GABA uptake at any of the GATs [2]: < 15%

SMILES: NC1CC1(CC(=O)O)c1ccccc1 (centres unmarked) [4c]
Percentage inhibition of [3H]GABA uptake at any of the GATs [2]: < 15%

Increase in activity compared to wildtype (BGT1 E52A): not significantly altered | IC50 (GAT3 L314Q): 5.01 µM
SMILES: NCCCC(=O)O [GABA, γ-aminobutyric acid]

SMILES: NC1CC1CC(=O)O [compound 1, (2S,3R)-4-amino-3,4-methanobutyric acid]
Less potent than bicyclo-GABA (BGT1 [3]): 9 times | Higher activity for BGT1 than GAT3 (BGT1 [3]; subtype-selectivity BGT1 vs GAT3): three times higher activity

SMILES: CN(C)[C@@]12CC[C@H](C(=O)O)[C@@H]1C2 [compound 3]
Percentage inhibition of [3H]GABA uptake at any of the GATs [2]: < 15%
